Source: PMC11990103, “Anticancer Activity and Safety Profile of Novel 1-(4-Fluorophenoxyacetyl)-4-substituted Thio/Semicarbazide Derivatives” (Molecules, 2025)

What was measured:
[1] = parameters: method as in PMID 14912098; settings: as toxic as thiosemicarbazide; cited from earlier work
[2] = tested on: BJ fibroblasts; test: MTT cytotoxicity assay, normal cells; assay type: cell-based, human; settings: 48 h treatment, read-out: IC50 BJ (fibroblast)
Procedure: (§1) These cancer cell lines comprised prostate cancer (PC-3, DU-145, LNCaP), melanoma (SK-MEL28, A375, G-361), breast cancer (MCF-7, MDA-MB-231), and lung cancer (NCI-H1563). The MTT assay was carried out across a wide range of concentrations for 48 h.
(§2) The research was conducted on one primary cell line: BJ (fibroblast) and four types of cancerous ones: three prostate cancer cell lines (PC-3, DU-145, LNCaP); 3 Melanoma cell lines (MEL-28, A375, G-361); 2 breast cancer cell lines (MCF-7, MDA-MB-23) and one lung cancer cell line (NCI-H1563). All cell lines were obtained from the American Type Culture Collection (ATCC, Manassas, VA, USA) and were grown in media (Corning, New York, NY, USA) according to ATCC guidelines. The culture media was enriched with 10% heat-inactivated fetal bovine serum (Life Technologies, Carlsbad, CA, USA) and antibiotics: penicillin (100 units) and streptomycin (100 μg/mL) from Sigma-Aldrich (St. Louis, MO, USA). The cells were incubated at 37 °C with 5% CO2 in air.
(§3) The cytotoxic analysis of thiosemicarbazides (TSC) (AB1–AB6) and semicarbazides (SC) (AB7–AB12) was conducted in various concentrations. […] The cells were treated with compounds or DMSO as a vehicle in control cultures for 48h. IC50 values were determined using the AAT Bioquest IC50 calculator (AAT Bioquest, Inc., Pleasanton, CA, USA, Quest Graph™ EC50 Calculator. https://www.aatbio.com/tools/ec50-calculator) (accessed on 7 October 2024).
(§4) The cytotoxic activity of the thiosemicarbazides and semicarbazides was measured using the MTT colorimetric assay (MTT Cell Proliferation Assay Kit—Invitrogen, Waltham, MA, USA). The cells were seeded in the 96-well plates at a density of 1.5 × 10^5 cells/mL. After reaching 70–80% of confluence, the tested compounds in a wide range of concentrations were added. Plates were incubated for 48 h at 37 °C in 5% CO2 air. Then, […] tetrazolium salt (3-(4,5-dimethylthiazol-2-yl)-2,5-diphenyltetrazolium bromide)—MTT reagent (0.5 mg/mL) dissolved in PBS was added to each well for 4 h. The MTT solution was then removed from above the water-insoluble purple formazan crystals, which were then dissolved in DMSO (dimethyl sulfoxide, […]; POCH, Gliwice, Poland). The absorbance value of obtained solutions was measured using a PowerWave ™ microplate spectrophotometer (Bio-Tek Instruments, Winooski, VT, USA) at a wavelength of 570 nm. Each cytotoxicity assay was repeated three times in triplicates.

[3] = tested on: MCF-7 breast cancer cell line; test: MTT cytotoxicity assay; assay type: cell-based, human; settings: 48 h treatment
Procedure: as §1, §2, §3, §4

[4] = tested on: DU-145 prostate cancer cell line; test: MTT cytotoxicity assay; assay type: cell-based, human; settings: 48 h treatment
Procedure: as §1, §2, §3, §4

[5] = tested on: MDA-MB-231 breast cancer cell line; test: MTT cytotoxicity assay; assay type: cell-based, human; settings: 48 h treatment
Procedure: as §1, §2, §3, §4

[6] = tested on: LNCaP prostate cancer cell line; test: MTT cytotoxicity assay; assay type: cell-based, human; settings: MTT, 48 h treatment
Procedure: as §1, §2, §3, §4

[7] = tested on: SK-MEL28 melanoma cell line; test: MTT cytotoxicity assay; assay type: cell-based, human; settings: 48 h treatment
Procedure: as §1, §2, §3, §4

[8] = tested on: PC-3 prostate cancer cell line; test: MTT cytotoxicity assay; assay type: cell-based, human; settings: 48 h treatment
Procedure: as §1, §2, §3, §4

[9] = tested on: G-361 melanoma cell line; test: MTT cytotoxicity assay; assay type: cell-based, human; settings: MTT, 48 h treatment
Procedure: as §1, §2, §3, §4

[10] = tested on: A375 melanoma cell line; test: MTT cytotoxicity assay; assay type: cell-based, human; settings: 48 h treatment
Procedure: as §1, §2, §3, §4

[11] = tested on: NCI-H1563 lung cancer cell line; test: MTT cytotoxicity assay; assay type: cell-based, human; settings: 48 h treatment
Procedure: as §1, §2, §3, §4

[12] = tested on: zebrafish embryos; parameters: method as in PMID 36436567; settings: cited from earlier work
[13] = tested on: tested cancer cell lines (PC-3, DU-145, LNCaP, SK-MEL28, A375, G-361, MCF-7, MDA-MB-231, NCI-H1563); test: MTT cytotoxicity assay, panel of nine cancer cell lines as a whole; assay type: cell-based, human
Procedure: as §1
The research was conducted on one primary cell line: BJ (fibroblast) and four types of cancerous ones: three prostate cancer cell lines (PC-3, DU-145, LNCaP); 3 Melanoma cell lines (MEL-28, A375, G-361); 2 breast cancer cell lines (MCF-7, MDA-MB-23) and one lung cancer cell line (NCI-H1563). […]
The cytotoxic analysis of thiosemicarbazides (TSC) (AB1–AB6) and semicarbazides (SC) (AB7–AB12) was conducted in various concentrations. […] IC50 values were determined using the AAT Bioquest IC50 calculator (AAT Bioquest, Inc., Pleasanton, CA, USA, Quest Graph™ EC50 Calculator. https://www.aatbio.com/tools/ec50-calculator) (accessed on 7 October 2024).
The cytotoxic activity of the thiosemicarbazides and semicarbazides was measured using the MTT colorimetric assay (MTT Cell Proliferation Assay Kit—Invitrogen, Waltham, MA, USA). […] The absorbance value of obtained solutions was measured using a PowerWave ™ microplate spectrophotometer (Bio-Tek Instruments, Winooski, VT, USA) at a wavelength of 570 nm. […]

[14] = tested on: G-361 melanoma cells; parameters: method as in PMID 35204651; settings: cited from earlier work

| SMILES | toxicity relative to thiosemicarbazide [1] | IC50 [2] | IC50 [3] | IC50 [4] | IC50 [5] | IC50 [6] | IC50 [7] | IC50 [8] | IC50 [9] | IC50 [10] | IC50 [11] | morphological abnormalities, including cardiotoxicity [12] | IC50 ([13]; MTT, 48 h, thiosemicarbazides tested 500 to 100 μM, semicarbazides 100 μM to 1 μM, read-out: IC50 in the tested cancer cell lines (stated for the panel)) | population of cells in the sub-G1 phase [14] | selectivity index (SI) ([13]; IC50 normal cells (BJ) divided by IC50 cancer cells, cell line not specified) |
| --- | --- | --- | --- | --- | --- | --- | --- | --- | --- | --- | --- | --- | --- | --- | --- |
| NNC(N)=O [semicarbazide] | about 1/20 | – | – | – | – | – | – | – | – | – | – | – | – | – | – |
| O=C(COc1ccc(F)cc1)NNC(=S)Nc1ccc(Cl)cc1Cl [AB5] | – | 303 µM | 421 µM | 401 µM | 445 µM | 154 µM | 297 µM | 395 µM | 276 µM | 384 µM | 372 µM | – | – | – | – |
| O=C(COc1ccc(F)cc1)NNC(=S)Nc1cccc(Cl)c1 [AB3] | – | 422 µM | 456 µM | 268 µM | 495 µM | 175 µM | 302 µM | 467 µM | 248 µM | 400 µM | 437 µM | – | – | – | – |
| CCCCCCNC(=O)NNC(=O)Cc1ccc([N+](=O)[O-])cc1 [1-[(4-nitrophenyl)acetyl]-4-hexylsemicarbazide] | – | – | – | – | – | – | – | – | – | – | – | do not cause morphological abnormalities, including cardiotoxicity | – | – | – |
| O=C(COc1ccc(F)cc1)NNC(=S)Nc1ccccc1 [AB1] | – | 498 µM | > 500 µM | > 500 µM | > 500 µM | 252 µM | > 500 µM | > 500 µM | 369 µM | > 500 µM | > 500 µM | – | > 500 µM | – | – |
| CCNC(=O)NNC(=O)c1ccc([N+](=O)[O-])cc1 [1-(4-nitrobenzoyl)-4-ethylsemicarbazide] | – | – | – | – | – | – | – | – | – | – | – | do not cause morphological abnormalities, including cardiotoxicity | – | – | – |
| CSc1ccc(NC(=S)NNC(=O)COc2ccc(Cl)cc2Cl)cc1 [PK2] | – | – | – | – | – | – | – | – | – | – | – | – | – | increase | – |
| N.N.[Cl][Pt][Cl] [Cisplatin, reference compound] | – | – | 22.6 µM | 64.1 µM | 38.7 µM | 31.5 µM | 25.8 µM | 52.2 µM | 12.5 µM | 18.2 µM | 2.78 µM | – | – | – | – |
| O=C(COc1ccc(F)cc1)NNC(=S)Nc1ccc(Cl)c(Cl)c1 [AB6] | – | < 100 µM | 240 µM | 343 µM | 334 µM | 121 µM | 195 µM | 388 µM | 210 µM | 257 µM | 242 µM | – | – | – | < 1 |
| O=C(COc1ccc(F)cc1)NNC(=S)Nc1ccc(Cl)cc1 [AB4] | – | 313 µM | 343 µM | 297 µM | 421 µM | 257 µM | 322 µM | 355 µM | 265 µM | 399 µM | 293 µM | – | – | – | – |
